Patent publication EP4563571A1, “PRMT5 INHIBITORS” (Beijing Earthwise Technology Co., Ltd., priority 2022, dated 2024)

Test system: HCT116^MTAP Deletion cells
Assay: Anti-proliferation assay on cells (Cell-Titer Glo, 10 days)
Format: cell-based
Conditions: 240 h, HCT116^MTAP Deletion cells, 10 days incubation, CTG readout; read-out: HCT116^MTAP Deletion GI50
Method: HCT116^MTAP Deletion cells were from Pharmaron (China); HCT116 cells were from ATCC; McCoy's 5A medium was purchased from Invitrogen (USA); penicillin-streptomycin and fetal bovine serum were purchased from Gibco (USA); a 384-well plate was purchased from PerkinElmer (USA); and Cell-Titer Glo reagent was purchased from Promega (USA).
Compound dissolution: All the compounds were dissolved in dimethyl sulfoxide (DMSO) and then stored. The compounds were stored at room temperature in a dry condition for 3 months for short term storage or at -20 °C for long term storage.
Cell culture and passaging
The cells were cultured strictly in accordance with ATCC requirements. The cell culture medium (McCoy's 5A medium + 10% fetal bovine serum + 1% penicillin + streptomycin) was transferred to a 15 mL centrifuge tube and centrifuged at 1000 rpm for 5 min. The supernatant was removed. The cells were resuspended with complete culture medium, inoculated into a culture dish at the required density, and cultured in an incubator at 37 °C, 95% humid air, and 5% carbon dioxide. The culture medium was replenished or the cells were passaged every 2-3 days depending on the cell growth condition.
Cell proliferation activity assay
When the confluency of cells in the culture dish reached about 90%, the cells were washed twice with PBS, and then treated with trypsin to become single cells. The cells were counted, and 40µl of the cells was inoculated into each well of a 384-well plate (50 cells/well). The plate was equilibrated at 37 °C and 5% carbon dioxide for 10 to 15 minutes. The compounds were injected into the 384-well plate using Echo550, and positive control and negative control (0.1% DMSO) were set up. Each compound was subjected to a 3-fold dilution, resulting in 10 concentration gradients, in duplicate, and the content of DMSO was 0.1%. The 384-well plate was incubated in a cell culture incubator for 10 days.
Then, 40 µl of cell proliferation assay reagent (CTG) was added to the 384-well plate, and the plate was shaken to mix well. Then, the 384-well plate was incubated at 37 °C and 5% carbon dioxide in the dark for 30 minutes. The data were read using the Envision multifunctional microplate reader. […] According to the different drug concentrations and their corresponding inhibition rates, the GI50 curve was drawn using GraphPad 8.0 software. The data were analyzed, and the final IC50 value was obtained.

| SMILES | GI50 [nM] |
| --- | --- |
| CN(C(=O)C(=O)Nc1cnc(N)c2c1cnn2C)C1COCc2cc(-c3cnc(C(F)(F)F)s3)ccc21 (stereo not drawn) [Example 191] | < 10 |
| CN(C(=O)C(=O)Nc1cnc(N)c2c1cnn2C)C1COCc2cc(-c3ccccc3F)ccc21 (stereo not drawn) [Example 215] | < 10 |
| CN(C(=O)C(=O)Nc1cnc(N)c2c1cnn2C)C1COc2cc(OC(F)(F)F)ccc21 (stereo not drawn) [Example 196] | 10 to 100 |
| COC(=O)N1CC=C(c2ccc(CN(C(=O)C(=O)Nc3cnc(N)c(C)c3)[C@H](C)c3ncccn3)nc2)CC1 [Example 84] | 10 to 100 |
| CN(C(=O)C(=O)Nc1cnc(N)c2c1cnn2C)C1CCc2cc(C(F)(F)F)ccc21 (stereo not drawn) [Example 136] | 10 to 100 |
| Cc1nc(-c2ccc3c(c2)OCC3N(C)C(=O)C(=O)Nc2cnc(N)c3c2cnn3C)no1 (stereo not drawn) [Example 229] | 10 to 100 |

The remaining lines, values ahead:

| GI50 [nM] | SMILES |
| --- | --- |
| 10 to 100 | CCC(C)N(Cc1ccc(OC(F)(F)F)cn1)C(=O)C(=O)Nc1cnc(N)c(C)c1 (stereo not drawn) [Example 92] |
| < 10 | CN(C(=O)C(=O)Nc1cnc(N)c2c1cnn2C)C1COCc2nc(-c3ccccc3F)ccc21 (stereo not drawn) [Example 225] |
| 10 to 100 | CN1CCN(c2ccc3c(c2)COCC3N(C)C(=O)C(=O)Nc2cnc(N)c3c2cnn3C)CC1 (stereo not drawn) [Example 149] |
| < 10 | CN(C(=O)C(=O)Nc1cnc(N)c2c1cnn2C)C1COCc2cc(C(F)(F)C(F)(F)F)ccc21 (stereo not drawn) [Example 238] |
| < 10 | Cc1c(-c2ccc3c(c2)COCC3N(C)C(=O)C(=O)Nc2cnc(N)c3c2cnn3C)cnn1C (stereo not drawn) [Example 150] |
| < 10 | CCC(C)N(Cc1ccc(C2=CCN(C(=O)OC)CC2)cn1)C(=O)C(=O)Nc1cnc(N)c(C)c1 (stereo not drawn) [Example 125-P1] |
| 10 to 100 | CC(C)CN(C(=O)C(=O)Nc1cnc(N)c2c1cnn2C)C1COc2cc(C(F)(F)F)ccc21 (stereo not drawn) [Example 122] |
| < 10 | CC1OCc2c(NC(=O)C(=O)N(Cc3ccc(C(F)(F)F)cn3)Cc3ccnc4[nH]ccc34)cnc(N)c21 (stereo not drawn) [Example 81] |
| < 10 | CN(C(=O)C(=O)Nc1cnc(N)c2c1cnn2C)C1COCc2cc(C34CCOCC3C4)ccc21 (stereo not drawn) [Example 197] |
| 100 to 1000 | CN(C(=O)C(=O)Nc1cnc(N)c2c1cnn2C)C1COc2ccccc2C1 (stereo not drawn) [Example 234] |
| 10 to 100 | CN(C(=O)C(=O)Nc1cnc(N)c2c1cnn2C)C1COc2cc(C(F)(F)F)c(F)cc21 (stereo not drawn) [Example 199] |

Same assay, conditions: HCT116^MTAP Deletion cells, 10 days incubation, CTG readout; read-out: HCT116^MTAP Deletion GI50

| SMILES | GI50 [nM] |
| --- | --- |
| Nc1ncc(NC(=O)C(=O)N(Cc2ccc(C(F)(F)F)cn2)CC2CCC2)c2c1COC2 [Example 41] | 100 to 1000 |
| CN(C(=O)C(=O)Nc1cnc(N)c2c1cnn2C)C1COc2cc(-c3ccnn3C)ccc21 (racemic) [compound 192] | < 10 |
| Cn1ncc2c(NC(=O)C(=O)N(Cc3ccc(C(F)(F)F)cn3)CC3CCC3)cnc(N)c21 [Example 4] | 10 to 100 |
| Cn1ncc2c(NC(=O)C(=O)N(Cc3ccc(C(F)(F)F)cn3)CC3CC3)cnc(N)c21 [Example 43] | < 10 |
| CCC(C)N(Cc1ccc(C(F)(F)F)cn1)C(=O)C(=O)Nc1cnc(N)c2c1cnn2C (stereo not drawn) [Example 46-P2] | 10 to 100 |
| C[C@H](c1ncccn1)N(Cc1ccc(C(F)(F)F)cn1)C(=O)C(=O)Nc1cnc(N)c(F)c1 [Example 22] | 1000 to 10000 |
| CCC(C)N(Cc1ccc(C(F)(F)F)cn1)C(=O)C(=O)Nc1cnc(OC)c(C(N)=O)c1 (single isomer, unassigned) [Example 5-P2] | 10 to 100 |
| CN(C(=O)C(=O)Nc1cnc(N)c2c1cnn2C)C1COc2cc(C3=CCOCC3)ccc21 (single isomer, unassigned) [Example 153-P2] | 100 to 1000 |
| Cc1cc(NC(=O)C(=O)N(Cc2ccc(C(F)(F)F)cn2)[C@H](C)C2CC2)cnc1N [Example 36] | 10 to 100 |

Further lines, results first:

| GI50 [nM] | SMILES |
| --- | --- |
| 10 to 100 | CC(c1cscn1)N(Cc1ccc(C(F)(F)F)cn1)C(=O)C(=O)Nc1cnc(N)c2c1cnn2C (stereo not drawn) [Example 44] |
| 10 to 100 | Cc1cc(NC(=O)C(=O)N(Cc2ccc(C(F)(F)F)cn2)CC2CCC2)cnc1N [Example 16] |
| 100 to 1000 | Nc1ncc(NC(=O)C(=O)N(Cc2ccc(C(F)(F)F)cn2)CC2CC2)c2c1COC2 [Example 40] |
| 10 to 100 | CN(C(=O)C(=O)Nc1cnc(N)c2c1cnn2C)C1COc2cc(F)c(F)cc21 (racemic) [compound 172] |
